Experimental data: ChEMBL document CHEMBL4334530, “Glucoconjugated Monoterpene Indole Alkaloids from Uncaria rhynchophylla” (J Nat Prod, 2019)
Structures can show the parent of a compound that is named as a salt.

Key:
A549 = assay: Cytotoxicity against human A549 cells assessed as cell growth inhibition measured after 48 hrs by MTT assay; format: functional, cell-based; details: A549, 48 h
HepG2 = assay: Cytotoxicity against human HepG2 cells assessed as cell growth inhibition measured after 48 hrs by MTT assay; format: functional, cell-based; details: HepG2, 48 h
MCF7 = assay: Cytotoxicity against human MCF7 cells assessed as cell growth inhibition measured after 48 hrs by MTT assay; format: functional, cell-based; details: MCF7, 48 h
Acetylcholinesterase = Acetylcholinesterase (Electrophorus electricus, UniProt O42275); assay: Inhibition of electric eel AChE using acetylthiocholine iodide as substrate preincubated for 20 mins followed by substrate addition measured for 30 mins by Ellman's method
Sequence of Acetylcholinesterase (O42275 whole entry): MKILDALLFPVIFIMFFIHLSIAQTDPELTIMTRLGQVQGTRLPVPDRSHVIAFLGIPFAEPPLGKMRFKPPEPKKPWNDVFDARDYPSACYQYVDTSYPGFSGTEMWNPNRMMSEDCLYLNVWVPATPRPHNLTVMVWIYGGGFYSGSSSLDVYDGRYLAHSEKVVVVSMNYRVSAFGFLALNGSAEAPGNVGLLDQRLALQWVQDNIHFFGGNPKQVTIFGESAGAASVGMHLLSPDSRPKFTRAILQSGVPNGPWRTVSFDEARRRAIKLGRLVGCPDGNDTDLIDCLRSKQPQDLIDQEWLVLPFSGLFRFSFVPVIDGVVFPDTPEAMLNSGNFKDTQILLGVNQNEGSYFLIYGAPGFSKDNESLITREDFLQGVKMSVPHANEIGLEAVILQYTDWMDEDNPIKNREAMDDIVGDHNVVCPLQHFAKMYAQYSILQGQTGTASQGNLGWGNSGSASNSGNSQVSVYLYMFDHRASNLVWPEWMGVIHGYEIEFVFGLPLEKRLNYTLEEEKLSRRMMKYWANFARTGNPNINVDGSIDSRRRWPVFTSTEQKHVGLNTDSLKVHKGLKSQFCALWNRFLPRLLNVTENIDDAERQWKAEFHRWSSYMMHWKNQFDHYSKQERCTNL

Q: For `C=C[C@H]1[C@H](O[C@@H]2O[C@H](CO)[C@@H](O)[C@H](O)[C@H]2O)OC=C2C(=O)N3Cc4c([nH]c5cc(O)ccc5c4=O)[C@H]3C[C@H]21`, which IC50 (A549) is on record?
A: Its IC50 is > 80 µM.

Q: And the IC50 (HepG2)?
A: The IC50 was > 80 µM.

Q: And the IC50 (MCF7)?
A: Its IC50 is > 80 µM.

Q: `C=C[C@H]1[C@H](O[C@@H]2O[C@H](CO)[C@@H](O)[C@H](O)[C@H]2O)OC=C2C(=O)N3CCc4c([nH]c5ccccc45)[C@@H]3C[C@H]21` was tested. Which IC50 (A549) did it give?
A: The IC50 was > 80 µM.

Q: And the IC50 (HepG2)?
A: Its IC50 is > 80 µM.

Q: And the IC50 (MCF7)?
A: The IC50 was > 80 µM.

Q: With `C=C[C@H]1[C@H](O[C@@H]2O[C@H](CO)[C@@H](O)[C@H](O)[C@H]2O)OC=C2C(=O)N3[C@H](C(=O)O)Cc4c([nH]c5ccccc45)[C@@H]3C[C@H]21` as the compound, how does the IC50 (A549) read?
A: Its IC50 is > 80 µM.

Q: And the IC50 (HepG2)?
A: Its IC50 is > 80 µM.

Q: What about the IC50 (MCF7) of the same compound?
A: The IC50 was > 80 µM.

Q: For `C=C[C@H]1[C@H](O[C@@H]2O[C@H](CO)[C@@H](O)[C@H](O)[C@H]2O)OC=C(C(=O)OC)[C@H]1C[C@@H]1N[C@H](C(=O)O)Cc2c1[nH]c1ccccc21`, which IC50 (A549) is on record?
A: Its IC50 is > 80 µM.

Q: And the IC50 (HepG2)?
A: The IC50 was > 80 µM.

Q: What about the IC50 (MCF7) of the same compound?
A: Its IC50 is > 80 µM.

Q: For `C=C[C@H]1[C@H](O[C@@H]2O[C@H](CO)[C@@H](O)[C@H](O)[C@H]2O)OC=C2C(=O)N3CC[C@@]4(C(=O)Nc5cc(O)ccc54)[C@H]3C[C@H]21`, which IC50 (A549) is on record?
A: Its IC50 is > 80 µM.

Q: And the IC50 (HepG2)?
A: Its IC50 is > 80 µM.

Q: And the IC50 (MCF7)?
A: Its IC50 is > 80 µM.

Q: How did the IC50 (A549) turn out when `C=C[C@H]1[C@H](O[C@@H]2O[C@H](CO)[C@@H](O)[C@H](O)[C@H]2O)OC=C2C(=O)N3CCc4c([nH]c5ccccc45)[C@H]3C[C@H]21` was run?
A: The IC50 was > 80 µM.

Q: What about the IC50 (HepG2) of the same compound?
A: The IC50 was > 80 µM.

Q: And the IC50 (MCF7)?
A: Its IC50 is > 80 µM.

Q: For `C=C[C@H]1[C@H](O[C@@H]2O[C@H](CO)[C@@H](O)[C@H](O)[C@H]2O)OC=C(C(=O)OC)[C@H]1Cc1nc(C(=O)OC)cc2c1[nH]c1ccccc12`, which IC50 (A549) is on record?
A: Its IC50 is > 80 µM.

Q: What about the IC50 (HepG2) of the same compound?
A: The IC50 was > 80 µM.

Q: And the IC50 (MCF7)?
A: The IC50 was > 80 µM.

Q: `C=C[C@H]1[C@H](O[C@@H]2O[C@H](CO)[C@@H](O)[C@H](O)[C@H]2O)OC=C2C(=O)N3CCc4c([nH]c5ccc(O)cc45)[C@@H]3C[C@H]21` was tested. Which IC50 (A549) did it give?
A: Its IC50 is > 80 µM.

Q: And the IC50 (HepG2)?
A: Its IC50 is > 80 µM.

Q: And the IC50 (MCF7)?
A: Its IC50 is > 80 µM.

Q: Which IC50 (A549) does the source give for `COC(=O)C1=CO[C@@H](O[C@@H]2O[C@H](CO)[C@@H](O)[C@H](O)[C@H]2O)[C@H]2[C@@H]1C[C@H]1c3[nH]c4ccccc4c3CCN1[C@H]2CO` here?
A: The IC50 was > 80 µM.

Q: And the IC50 (HepG2)?
A: The IC50 was > 80 µM.

Q: What about the IC50 (MCF7) of the same compound?
A: Its IC50 is > 80 µM.

Q: Which results are given for `O=C1C2=CO[C@@H](O[C@@H]3O[C@H](CO)[C@@H](O)[C@H](O)[C@H]3O[C@@H]3O[C@H](CO)[C@@H](O)[C@H](O)[C@H]3O)[C@H]([C@H](O)CO)[C@@H]2C[C@@H]2c3[nH]c4cc(O[C@@H]5O[C@H](CO)[C@@H](O)[C@H](O)[C@H]5O)ccc4c3CCN12`?
A: IC50 (A549): > 80 µM; IC50 (HepG2): > 80 µM; IC50 (MCF7): > 80 µM

Q: What does the source list for `C=C[C@H]1COC(=O)C2=CN3CCc4c([nH]c5cccc(O[C@@H]6O[C@H](CO)[C@@H](O)[C@H](O)[C@H]6O)c45)[C@@H]3C[C@H]21`?
A: IC50 (Acetylcholinesterase): 10.5 µM; IC50 (A549): > 80 µM; IC50 (HepG2): > 80 µM; IC50 (MCF7): > 80 µM

Q: Which results are given for `C=C[C@H]1[C@H](O[C@@H]2O[C@H](CO)[C@@H](O)[C@H](O)[C@H]2O)OC=C(C(=O)OC)[C@H]1C[C@@H]1N[C@H](C(=O)OC)Cc2c1[nH]c1ccccc21`?
A: IC50 (A549): > 80 µM; IC50 (HepG2): > 80 µM; IC50 (MCF7): > 80 µM

Q: How did the IC50 (A549) turn out when `C=C[C@H]1[C@H](O[C@@H]2O[C@H](CO)[C@@H](O)[C@H](O)[C@H]2O[C@@H]2O[C@H](CO)[C@@H](O)[C@H](O)[C@H]2O)OC=C2C(=O)N3CCc4c([nH]c5ccccc45)[C@H]3C[C@H]21` was run?
A: The IC50 was > 80 µM.

Q: And the IC50 (HepG2)?
A: The IC50 was > 80 µM.

Q: What about the IC50 (MCF7) of the same compound?
A: The IC50 was > 80 µM.

Q: With `COC(=O)C1=CO[C@@H](O[C@@H]2O[C@H](CO)[C@@H](O)[C@H](O)[C@H]2O)[C@@H]2[C@@H]3CN4CCc5c([nH]c6ccccc56)[C@]4(C[C@H]12)O3` as the compound, how does the IC50 (A549) read?
A: Its IC50 is > 80 µM.

Q: What about the IC50 (HepG2) of the same compound?
A: Its IC50 is > 80 µM.

Q: What about the IC50 (MCF7) of the same compound?
A: The IC50 was > 80 µM.

Q: Which results are given for `COC(=O)C1=CO[C@@H](O[C@@H]2O[C@H](CO)[C@@H](O)[C@H](O)[C@H]2O)[C@@H]2[C@H](O)CN3CCc4c([nH]c5ccccc45)[C@@H]3C[C@H]12`?
A: IC50 (A549): > 80 µM; IC50 (HepG2): > 80 µM; IC50 (MCF7): > 80 µM

Q: What does the source list for `C=C[C@H]1[C@H](O[C@@H]2O[C@H](CO)[C@@H](O)[C@H](O)[C@H]2O[C@@H]2O[C@H](CO)[C@@H](O)[C@H](O)[C@H]2O)OC=C2C(=O)N3CC[C@@]4(C(=O)Nc5cc(O)ccc54)[C@H]3C[C@H]21`?
A: IC50 (A549): > 80 µM; IC50 (HepG2): > 80 µM; IC50 (MCF7): > 80 µM

Q: Which results are given for `COC(=O)C1=CO[C@@H](O[C@@H]2O[C@H](CO)[C@@H](O)[C@H](O)[C@H]2O)[C@H]2[C@@H]1C[C@@H]1N(CC[C@]13C(=O)Nc1ccccc13)C[C@@H]2O`?
A: IC50 (A549): > 80 µM; IC50 (HepG2): > 80 µM; IC50 (MCF7): > 80 µM

Q: What does the source list for `C=C[C@H]1[C@H](O[C@@H]2O[C@H](CO)[C@@H](O)[C@H](O)[C@H]2O[C@@H]2O[C@H](CO)[C@@H](O)[C@H](O)[C@H]2O)OC=C2C(=O)N3Cc4c([nH]c5cc(O)ccc5c4=O)[C@H]3C[C@H]21`?
A: IC50 (A549): > 80 µM; IC50 (HepG2): > 80 µM; IC50 (MCF7): > 80 µM

Q: How did the IC50 (A549) turn out when `C=C[C@H]1CN2CC[C@]3(C(=O)Nc4ccccc43)[C@@H]2C[C@@H]1/C(=C/OC)C(=O)O[C@@H]1O[C@H](CO)[C@@H](O)[C@H](O)[C@H]1O` was run?
A: The IC50 was > 80 µM.

Q: What about the IC50 (HepG2) of the same compound?
A: Its IC50 is > 80 µM.

Q: What about the IC50 (MCF7) of the same compound?
A: The IC50 was > 80 µM.

Q: Which results are given for `C=C[C@H]1[C@H](O[C@@H]2O[C@H](CO)[C@@H](O)[C@H](O)[C@H]2O[C@@H]2O[C@H](CO)[C@@H](O)[C@H](O)[C@H]2O)OC=C2C(=O)N3CCc4c([nH]c5cc(O[C@@H]6O[C@H](CO)[C@@H](O)[C@H](O)[C@H]6O)ccc45)[C@H]3C[C@H]21`?
A: IC50 (A549): > 80 µM; IC50 (HepG2): > 80 µM; IC50 (MCF7): > 80 µM

Q: What does the source list for `COC(=O)C1=CO[C@@H](O[C@@H]2O[C@H](CO)[C@@H](O)[C@H](O)[C@H]2O)[C@H]2[C@@H]1C[C@@H]1c3[nH]c4ccccc4c3CCN1[C@H]2CO`?
A: IC50 (A549): > 80 µM; IC50 (HepG2): > 80 µM; IC50 (MCF7): > 80 µM

Q: What does the source list for `C=C[C@H]1CN2CC[C@@]3(C(=O)Nc4ccccc43)[C@@H]2C[C@@H]1/C(=C/OC)C(=O)O[C@@H]1O[C@H](CO)[C@@H](O)[C@H](O)[C@H]1O`?
A: IC50 (A549): > 80 µM; IC50 (HepG2): > 80 µM; IC50 (MCF7): > 80 µM

Q: With `C=C[C@H]1[C@H](O[C@@H]2O[C@H](CO)[C@@H](O)[C@H](O)[C@H]2O)OC=C2C(=O)N3CCc4c([nH]c5cc(O)ccc45)[C@H]3C[C@H]21` as the compound, how does the IC50 (A549) read?
A: Its IC50 is > 80 µM.

Q: What about the IC50 (HepG2) of the same compound?
A: Its IC50 is > 80 µM.

Q: And the IC50 (MCF7)?
A: The IC50 was > 80 µM.

Q: What does the source list for `C=C[C@H]1[C@H](O[C@@H]2O[C@H](CO)[C@@H](O)[C@H](O)[C@H]2O[C@@H]2O[C@H](CO)[C@@H](O)[C@H](O)[C@H]2O)OC=C2C(=O)N3CC[C@]4(C(=O)Nc5cc(O)ccc54)[C@H]3C[C@H]21`?
A: IC50 (A549): > 80 µM; IC50 (HepG2): > 80 µM; IC50 (MCF7): > 80 µM

Q: How did the IC50 (A549) turn out when `COc1cccc2c1C(=O)c1c(O)c3c(c(O)c1C2=O)C[C@@](O)(C(=O)CO)C[C@@H]3O[C@H]1C[C@H](N)[C@H](O)[C@H](C)O1` [DOXORUBICIN HYDROCHLORIDE] was run?
A: Its IC50 is < 1 µM.

Q: What about the IC50 (HepG2) of the same compound?
A: Its IC50 is < 1 µM.

Q: What about the IC50 (MCF7) of the same compound?
A: The IC50 was < 1 µM.

Q: What does the source list for `C=CC1C(C[C@@H]2NCCc3c2[nH]c2ccccc32)C(C(=O)O)=CO[C@H]1O[C@@H]1O[C@H](CO)[C@@H](O)[C@H](O)[C@H]1O` (some centres undefined) [STRICTOSIDINIC ACID]?
A: IC50 (A549): > 80 µM; IC50 (HepG2): > 80 µM; IC50 (MCF7): > 80 µM
